Tests used:
[1] = tested on: peripheral blood mononuclear cells derived from a cancer patient; test: CTL induction by peptide from autologous PBMC of cancer patient, IFN-γ production on recognition of target cells (Example 5); type: cell-based, human; conditions: for Recognition of tumor cells by PBMC stimulated in vitro with peptide (IFN-γ production): SW620, CA9-22 and Panc-1 HLA-A2+ tumor cells, result in words; for IFN-γ production from peripheral blood mononuclear cells in recognition of target cells: PBMC stimulated with 10 μM peptide
From the text: Among the peptides that were able to enhance IFN-γ production from the OK-CTLp or OK-CTL clone in Example 4, those from P1 to P19 were examined for their ability to induce CTL from peripheral blood mononuclear cells derived from a cancer patient. The method for inducing CTL by a peptide was according to the well-known method (J. Exp. Med., 187:277-288, 1998; Cancer Res., 59:4056-4063, 1999.) Specifically, autologous peripheral blood mononuclear cells (PBMC) derived from a cancer patient, from whom OK-CTLp was obtained, were incubated together with the peptide (10 μM.) The cells were re-stimulated at day 10 and 14 after the start of culturing, using autologous PBMCs as an antigen presenting cell (APC) which were pulsed with 10 μM of the same peptide for 2 h and exposed to irradiation (30 gray.) At day 21 after the start of culturing, the cells were collected to test for surface phenotype. In addition, the cells were examined for the recognition of various target cells, using IFN-γ production measured by ELISA when they were cultured together with the target cells as an indicator. As a target cells, SW620 cell, CA9-22 cell, and Panc-1 cell, which are the HLA-A2^+ tumor cells, were used.

[2] = tested on: peripheral blood mononuclear cells derived from a cancer patient; test: as above; type: cell-based, human; conditions: PBMC stimulated with 10 μM peptide
OK-CTLp or OK-CTL clone = test: Recognition of peptide-pulsed T2 cells by OK-CTLp or OK-CTL clone (IFN-γ ELISA); type: cell-based, human
[3] = tested on: human peripheral blood mononuclear cells (PBMC); test: CTL induction by peptide from PBMC of HLA-A2-positive cancer patients and healthy individuals, IFN-γ against peptide-pulsed T2 cells (Example 6); type: cell-based; conditions: for INF-γ production: peptide-pulsed T2 cells
Method: For six peptides (P21, P22, P24, P26, P30, and P32) with a purity of 95% or higher among peptides from P20 to P32 derived from gene 7 and CPSF among the tumor antigen peptide obtained in Example 4, the activity to induce CTL in vitro from human peripheral blood mononuclear cells (PBMC) was examined using IFN-γ production as an indicator. PBMC used was prepared from each peripheral blood of sixteen HLA-A2-positive cancer patients (4 patients with pancreatic cancer, seven patients with stomach cancer, and 5 patients with colon cancer) and six healthy individuals. Specifically, 1×10^5 PBMC was added to each well of 96-well U-bottom type microculture plate (Nunc Corp.) and incubated together with 10 μM of each of the above-described peptides in 200 μl culture medium. The culture medium consisted of 45% RPMI-1640, 45% AIM-V (Invitrogen Corp.,) 10% fetal calf serum (FCS), 100U/ml of human interleukin-2, and […] MEM nonessential amino acid solution (Invitrogen Corp.). At day 4 and day 7 after the start of culturing, half of the culture medium was removed and replaced with the above-described composition containing each corresponding peptide. At day 10 after the start of culturing, the cells were collected and washed, followed by reacting with T2 cells, which were pulsed with each corresponding peptide, to measure the amount of IFN-γ produced.

[4] = tested on: Panc-1 pancreatic adenocarcinoma cell (HLA-A2); test: 6-h 51Cr-releasing test of peptide-stimulated PBMC against Panc-1 (Example 6); type: cell-based, human; conditions: PBMC of colon cancer patient 12; Panc-1, E/T 10:1
Method: Meanwhile, the above-described cells cultured for 10 days after stimulation by the peptide were further cultured for 10 days. The cytotoxicity of the obtained cells against the Panc-1 pancreatic adenocarcinoma cell (HLA-A2) was measured by the standard 6-h ^51Cr-releasing test in an E/T ratio of 10:1. The results obtained are presented as % specific lysis (table 7). Together with this step, cytotoxicity against SSTW-9 tumor cell as the HLA-A2^− tumor cell was measured to use as a background that was subtracted from the above-described result.

[5] = concentration of peptide 0.1 μM

For “RIQEWCSVI (RLQEWCSVI; Designed peptide having an ability to activate HLA-A2 restricted Cytotoxic T lymphocytes) [Peptide P1, Gene 1 (UBE2V) 43-51]”, the “Recognition of tumor cells by PBMC stimulated in vitro with peptide (IFN-γ production)” value [1] was “produced IFN-γ in a significant amount”, the “IFN-γ production from peripheral blood mononuclear cells in recognition of target cells” value (shortened to “IFN-γ production … of target cells”) ([1]; target CA9-22 (HLA-A0207/24)) was 81 pg/mL and the “IFN-γ production … of target cells” value ([1]; target Panc-1 (HLA-A0201/11)) was 492 pg/mL. The “IFN-γ production … of target cells” value ([1]; target SW620 (HLA-A0201/24)) was 235 pg/mL, the “IFN-γ production … of target cells” value ([2]; target COLO320 (HLA-A24/24)) was 50 pg/mL and the “IFN-γ production … of target cells” value ([2]; target QG56 (HLA-A26/26)) was 0 pg/mL. For the same sequence, the “IFN-γ production … of target cells” value ([2]; target RERF-LC-MS (HLA-A11/11)) was 26 pg/mL.

Sequence SLLYLNQSV [Peptide P20] has an IFN-γ production (OK-CTLp or OK-CTL clone; [5]) of 344 pg/mL, an IFN-γ production (OK-CTLp or OK-CTL clone; concentration of peptide 1 μM) of 643 pg/mL and an IFN-γ production (OK-CTLp or OK-CTL clone; concentration of peptide 10 μM) of 0 pg/mL. The IFN-γ production (OK-CTLp or OK-CTL clone; concentration of peptide 50 μM) was 34 pg/mL.

For “TLLRKERGV (Designed peptide having an ability to activate HLA-A2 restricted Cytotoxic T lymphocytes) [Peptide P13, Gene 3 (WHSC2) 267-275]”, the “Recognition of tumor cells by PBMC stimulated in vitro with peptide (IFN-γ production)” value [1] was “produced IFN-γ in a significant amount”, the “IFN-γ production … of target cells” value ([1]; target CA9-22 (HLA-A0207/24)) was 95 pg/mL and the “IFN-γ production … of target cells” value ([1]; target Panc-1 (HLA-A0201/11)) was 115 pg/mL. The “IFN-γ production … of target cells” value ([1]; target SW620 (HLA-A0201/24)) was 151 pg/mL, the “IFN-γ production … of target cells” value ([2]; target COLO320 (HLA-A24/24)) was 0 pg/mL and the “IFN-γ production … of target cells” value ([2]; target QG56 (HLA-A26/26)) was 0 pg/mL. The “IFN-γ production … of target cells” value ([2]; target RERF-LC-MS (HLA-A11/11)) was 15 pg/mL.

TMLPHHAGL [Peptide P25] showed an IFN-γ production (OK-CTLp or OK-CTL clone; [5]) of 69 pg/mL, an IFN-γ production (OK-CTLp or OK-CTL clone; concentration of peptide 1 μM) of 1569 pg/mL and an IFN-γ production (OK-CTLp or OK-CTL clone; concentration of peptide 10 μM) of 25 pg/mL. It also gave an IFN-γ production (OK-CTLp or OK-CTL clone; concentration of peptide 50 μM) of 122 pg/mL.

Sequence “TQLATYSFEV (Designed peptide having an ability to activate HLA-A2 restricted Cytotoxic T lymphocytes) [Peptide P32, CPSF 456-465]” has an INF-γ production ([3]; PBMC of colon cancer patient 12) of 57 pg/mL, an INF-γ production ([3]; PBMC of colon cancer patient 13) of 0 pg/mL and an INF-γ production ([3]; PBMC of colon cancer patient 14) of 0 pg/mL. For the same sequence, the INF-γ production ([3]; PBMC of colon cancer patient 15) was 0 pg/mL, the INF-γ production ([3]; PBMC of colon cancer patient 16) was 4 pg/mL and the INF-γ production ([3]; PBMC of healthy individual HD1) was 0 pg/mL. For the same sequence, the INF-γ production ([3]; PBMC of healthy individual HD2) was 0 pg/mL, the INF-γ production ([3]; PBMC of healthy individual HD3) was 0 pg/mL and the INF-γ production ([3]; PBMC of healthy individual HD4) was 0 pg/mL. For the same sequence, the INF-γ production ([3]; PBMC of healthy individual HD5) was 0 pg/mL, the INF-γ production ([3]; PBMC of healthy individual HD6) was 0 pg/mL and the INF-γ production ([3]; PBMC of pancreatic cancer patient 1) was 0 pg/mL. The INF-γ production ([3]; PBMC of pancreatic cancer patient 2) was 12 pg/mL, the INF-γ production ([3]; PBMC of pancreatic cancer patient 3) was 0 pg/mL and the INF-γ production ([3]; PBMC of pancreatic cancer patient 4) was 0 pg/mL. It also gave an INF-γ production ([3]; PBMC of stomach cancer patient 5) of 0 pg/mL, an INF-γ production ([3]; PBMC of stomach cancer patient 6) of 0 pg/mL and an INF-γ production ([3]; PBMC of stomach cancer patient 7) of 0 pg/mL. For the same sequence, the INF-γ production ([3]; PBMC of stomach cancer patient 8) was 0 pg/mL, the INF-γ production ([3]; PBMC of stomach cancer patient 9) was 0 pg/mL and the INF-γ production ([3]; PBMC of stomach cancer patient 10) was 0 pg/mL. For the same sequence, the INF-γ production ([3]; PBMC of stomach cancer patient 11) was 0 pg/mL, the “Patients in whom peptide-specific HLA-A2-restricted CTL were induced from PBMC” value ([3]; sixteen HLA-A2-positive cancer patients) was 7% and the “% specific lysis” value [4] was 18%.

Sequence YQLPDWRLV [Peptide P29] has an IFN-γ production (OK-CTLp or OK-CTL clone; [5]) of 0 pg/mL, an IFN-γ production (OK-CTLp or OK-CTL clone; concentration of peptide 10 μM) of 86 pg/mL and an IFN-γ production (OK-CTLp or OK-CTL clone; concentration of peptide 50 μM) of 362 pg/mL.
